# Experimental data taken from PubChem BioAssay (NCI).
# “And” between values parts separate entries of the source, which are not always exact repeats. Identical values can stand only once.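 Exposure lasted 48 hours, with cells grown in 96-well plates and compounds tested at five concentrations. Abbreviation: GI50, concentration required for 50% inhibition of growth. TGI is the concentration that stops growth completely.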
# Experiments:
# Assay in all cases: NCI anticancer screen, dose series, 48 h
# [1] = tested on: DU-145 prostate
# [2] = tested on: OVCAR-4 ovarian
# [3] = tested on: SNB-19 CNS
# [4] = tested on: PC-3 prostate
# [5] = tested on: A498 renal
# [6] = tested on: U251 CNS
# [7] = tested on: SN12C renal
# [8] = tested on: NCI-H226 lung
SMILES,GI50 [1],TGI [1],GI50 [2] [µM],TGI [2] [µM],GI50 [3],TGI [3],GI50 [4],TGI [4],GI50 [5],TGI [5],GI50 [6],TGI [6],GI50 [7],TGI [7],GI50 [8],TGI [8]
O=C1OCC2=C1C(c1ccc(Cl)c(Cl)c1)c1cc3c(cc1N2CCO)CCC3 (configuration not stated),0.203 µM,6.56 µM,0.326,21.4,0.324 µM,15.2 µM,0.163 µM,8.76 µM,0.0919 µM,1.37 µM,0.181 µM,6.29 µM,0.398 µM,8.91 µM,0.248 µM,6.47 µM
COc1cc2c(cc1Nc1nc(Nc3cccc(F)c3C(N)=O)c3cc[nH]c3n1)N(C(=O)CN1CCN(C(C)C)CC1)CC2,3.77 µM,7.28 µM,3.88,7.94,4.11 µM,8.27 µM,5.12 µM,13.5 µM,2.43 µM,3.68 µM,3.68 µM,7.09 µM,4.66 µM,10.5 µM,3.41 µM,7.01 µM
O=C(Nc1ccccc1)c1cc(S(=O)(=O)Nc2nc3ccccc3o2)c(SCc2ccccc2)cc1Cl,16.5 µM,32.4 µM,33.8,> 100,37 µM,> 100 µM,21.7 µM,46.7 µM,15.2 µM,34.6 µM,17.8 µM,35 µM,20.3 µM,46.2 µM,21.5 µM,50.7 µM
O=S(=O)(/N=c1/scc(-c2ccccc2)n1-c1ccccc1)c1ccc(N2N=C3c4ccccc4CC3C2c2cccs2)cc1 (configuration not stated),> 100 µM,> 100 µM,> 100,> 100,> 100 µM,> 100 µM,75 µM,> 100 µM,–,–,31.2 µM,> 100 µM,94.3 µM,> 100 µM,78.9 µM,> 100 µM
Cc1c(O)c2c(c(O)c1Br)C(=O)C=CC2=O,1.82 µM,2.85 µM and 3.24 µM,1.03,2.23,–,3.74 µM,1.9 µM,3.19 µM and 5.15 µM,–,3.18 µM and 3.87 µM,–,3.09 µM and 3.99 µM,–,2.73 µM,5.44 µM,5.77 µM and 18.7 µM
NCC1OC(OC2C(CO)OC(OC3C(O)C(N)CC(N)C3OC3OC(CO)C(O)CC3N)C2O)C(N)C(O)C1OC1OC(CO)C(O)C(O)C1O (configuration not stated),> 50 µg/mL,> 50 µg/mL,–,–,> 50 µg/mL,> 50 µg/mL,> 50 µg/mL,> 50 µg/mL,> 50 µg/mL,> 50 µg/mL,> 50 µg/mL,> 50 µg/mL,> 50 µg/mL,> 50 µg/mL,> 50 µg/mL,> 50 µg/mL
CC(=O)OC1CC2C3CCC4C[C@@H](NC(=O)C=C(C)C)CC[C@]4(C)C3CC[C@]2(C)[C@H]1C(C)N(C)C (some centres not stated),3.41 µM,14.1 µM,2.82,17.5,3.63 µM,9.06 µM,2.14 µM,8.97 µM,1.71 µM,4.51 µM,1.75 µM,5.79 µM,2.4 µM,8 µM,3.6 µM,15 µM
COc1ccc(Nc2cc(C)nc(NCCCNc3ccnc4cc(Cl)ccc34)n2)cc1,3.4 µM,10.7 µM,1.44,4.86,3.48 µM,13.4 µM,2.35 µM,9.9 µM,1.49 µM,3.39 µM,1.39 µM,2.8 µM,2.74 µM,10.8 µM,2.08 µM,5.17 µM
O=C(Nc1n[nH]c2nnc(-c3cccnc3)cc12)C1CC1,> 13.4 µM,> 25 µM,7.66,> 25,> 11.9 µM,> 25 µM,6.44 µM,> 25 µM,0.051 µM,0.17 µM,1.06 µM,> 25 µM,> 11.7 µM,> 25 µM,2.7 µM,> 13.9 µM
N#C[Se]CCCNS(=O)(=O)C1CC2C=CC1C2 (configuration not stated),1.06 µM,2.58 µM,1.48,8.57,1.05 µM,2.91 µM,0.704 µM,3.83 µM,0.652 µM,2.09 µM,1.08 µM,3.36 µM,0.494 µM,1.44 µM,0.267 µM,0.674 µM
O=C(c1ccco1)c1c(C(F)(F)F)n([O-])c2ccc(Cl)cc2[n+]1=O,0.341 µM,1.44 µM,1.55,5.73,1.58 µM,5.67 µM,0.294 µM,1.07 µM,1.46 µM,2.99 µM,0.487 µM,1.66 µM,1.35 µM,3.13 µM,1.43 µM,3.24 µM
c1ccc2cc(C[n+]3ccn(CCCCCCCCCCn4cc[n+](Cc5ccc6ccccc6c5)c4)c3)ccc2c1,1.06 µM,14.1 µM,0.988,9.88,–,–,1.19 µM,7.3 µM,0.0129 µM,2.77 µM,–,–,–,–,0.918 µM,13.6 µM
Clc1ccc(OCc2nnc3n2N=C(c2ccc(Cl)cc2Cl)CS3)cc1,31.2 µM,> 100 µM,23.7,79,28.5 µM,> 100 µM,27.6 µM,> 100 µM,–,–,19.5 µM,41.8 µM,14.8 µM,30.6 µM,17.3 µM,38.9 µM
CC1(C)[C@@H](OC(=O)CCC(=O)O)CC[C@]2(C)[C@H]3C(=O)C=C4[C@@H]5C[C@@](C)(C(=O)O)CC[C@]5(C)CC[C@@]4(C)[C@]3(C)CC[C@@H]12,58.3 µM,142 µM,64.6,168,55 µM,141 µM,56 µM,127 µM,49.2 µM,68 µM,53.2 µM,77.4 µM,51.9 µM,105 µM,–,–
O=C1c2ccccc2-c2c1c1ccccc1c(=O)n2CCCNCCCCNCCCN1C(=O)c2ccccc2C2C(=O)c3ccccc3C21 (configuration not stated),0.127 µM,0.837 µM,0.779,10.3,0.57 µM,1.93 µM,0.512 µM,1.24 µM,0.628 µM,2.21 µM,0.0756 µM,0.767 µM,< 0.005 µM,0.818 µM,0.575 µM,2.19 µM
COc1cc(C(=O)Nc2cc(OC)c3ccn(C)c3c2)cc2c1C[C@]1(C)CC[C@@H](O)C(C)(C)[C@H]1O2,1.22 µM,29 µM,4.14,> 100,2.7 µM,90.2 µM,0.195 µM,> 100 µM,0.149 µM,1.89 µM,0.0978 µM,15.3 µM,3.93 µM,> 100 µM,7.69 µM,> 100 µM

SMILES,GI50 [1],TGI [1],GI50 [2] [µM],TGI [2] [µM],GI50 [3],TGI [3],GI50 [4],TGI [4],GI50 [5],TGI [5],GI50 [6],TGI [6],GI50 [7],TGI [7],GI50 [8],TGI [8]
O=c1oc2ccc(Br)cc2c(=O)n1-c1ccc(I)cc1F,0.494 µM,26.9 µM,0.389,13.7,0.363 µM,> 70 µM,1.13 µM,5.86 µM,0.15 µM,0.377 µM,0.375 µM,19.3 µM,0.33 µM,2.79 µM,0.66 µM,3.36 µM
Cn1c(/C=C/[N+](=O)[O-])cc2ccccc21,1.65 µM,3.21 µM,10.3,92.1,11.1 µM,28.8 µM,6.75 µM,35.5 µM,2.19 µM,9.27 µM,1.73 µM,3.75 µM,13.1 µM,> 100 µM,4.23 µM,21 µM
CC(=O)Nc1ccc(COC(O)CN2CCCCC2)cc1[N+](=O)[O-] (configuration not stated),–,> 100 µM,–,> 100,–,> 100 µM,–,> 100 µM,–,> 100 µM,–,> 100 µM,–,> 100 µM,–,> 100 µM
Cn1c(=O)c(Oc2ccc(F)cc2F)cc2cnc(NC3CCS(=O)(=O)CC3)nc21,> 25 µM,> 25 µM,> 25,> 25,> 25 µM,> 25 µM,> 25 µM,> 25 µM,> 25 µM,> 25 µM,> 25 µM,> 25 µM,> 25 µM,> 25 µM,> 25 µM,> 25 µM
CC(C)(C)c1c2c(c(C(C)(C)C)c3c1OCN(Cc1ccccc1)C3)OCN(Cc1ccccc1)C2,–,59.7 µM,–,> 100,–,34.7 µM,–,38 µM,–,20.6 µM,–,29.6 µM,–,34.9 µM,–,–
O=C(O)c1ccc(C(=O)O)c(C(=O)Nc2ccc3c(c2)C(=O)c2ccccc2-3)c1,–,> 100 µM,–,> 100,–,> 100 µM,–,> 100 µM,–,> 100 µM,–,> 100 µM,–,> 100 µM,–,> 100 µM
COc1ccc(-n2ccnc2-c2cc(OC)c(OC)c(OC)c2)cc1,6.66 µM,> 100 µM,11.3,85.7,4.64 µM,> 100 µM,3.3 µM,> 100 µM,0.798 µM,5.14 µM,3.98 µM,> 100 µM,6.24 µM,> 100 µM,24 µM,> 100 µM
CCCCCCCCC(=O)OCC(CS[As](C)C)OC(=O)CCCCCCCC (configuration not stated),0.747 µM,2.64 µM,9.89,38.4,11.5 µM,42.9 µM,2.6 µM,21.8 µM,2.38 µM,10.7 µM,2.45 µM,13 µM,2.08 µM,12.6 µM,5.81 µM,25.5 µM
CN1C/C=C/CCOc2cccc(c2)-c2ccnc(n2)Nc2cccc(c2)C1,0.0402 µM,1.4 µM,0.108,1.31,0.0574 µM,4.4 µM,0.0519 µM,1.39 µM,0.0356 µM,0.11 µM,0.0421 µM,1.07 µM,0.0442 µM,2.73 µM,0.0347 µM,0.442 µM
COc1cc(-c2c(C#N)c(N)nc(N3CCOCC3)c2C#N)cc(OC)c1OC,> 100 µM,> 100 µM,> 100,> 100,89.9 µM,> 100 µM,> 100 µM,> 100 µM,> 100 µM,> 100 µM,> 100 µM,> 100 µM,> 100 µM,> 100 µM,> 100 µM,> 100 µM
COc1cc([C@@H]2C[C@H]2c2cc(SC)n[nH]2)cc(OC)c1OC,17.7 µM,> 100 µM,26.2,> 100,35 µM,> 100 µM,18.1 µM,57.2 µM,–,–,79.3 µM,> 100 µM,8.98 µM,31.8 µM,16.9 µM,70.4 µM
CCOc1cccc(-c2nc(N)nc(Nc3ccccc3SSc3ccccc3Nc3nc(N)nc(-c4cccc(OCC)c4)n3)n2)c1,7.5 µM,> 100 µM,5.87,> 100,4.94 µM,> 100 µM,0.671 µM,15.3 µM,8.24 µM,> 100 µM,–,–,2.32 µM,14.8 µM,4.5 µM,> 100 µM
NCOC(=O)Cc1ccc(Br)cc1,–,> 100 µM,–,–,–,> 100 µM,–,> 100 µM,–,> 100 µM,–,> 100 µM,–,> 100 µM,–,> 100 µM
COc1cc([N+](=O)[O-])c(OC)cc1-c1nc2sc(Cl)cn2c1/C=N/NC1=NCCN1,0.306 µM,1.14 µM,–,–,–,–,1.71 µM,3.16 µM,1.85 µM,3.57 µM,1.65 µM,3.02 µM,1.67 µM,3.52 µM,–,–
COc1cc(/C=C2\C[C@H]3[C@@H]4CC=C5C[C@@H](O)CC[C@]5(C)[C@H]4CC[C@]3(C)[C@H]2O)ccc1OCCCn1ccnc1,1.92 µM,7.45 µM,–,–,12.4 µM,> 50 µM,1.45 µM,5.03 µM,–,–,0.923 µM,1.72 µM,2.73 µM,13.2 µM,4.09 µM,15.2 µM
Clc1cc(Cl)cc(N2N=C(c3cccc(Nc4ccncc4)c3)CC2c2ccc3c(c2)OCO3)c1 (configuration not stated),1.71 µM,3.13 µM,1.65,3.18,–,–,1.59 µM,3.18 µM,1.34 µM,4.54 µM,–,–,1.66 µM,3.13 µM,1.91 µM,4.3 µM
